Reference: article PMC10043283, “Neuraminidase 1 promotes renal fibrosis development in male mice” (Nature Communications, 2023)
Where two headings read alike, the source gives them in different places.

Molecular target: T1, NEU1 (neuraminidase 1) (Homo sapiens, UniProt Q99519)
T1 construct: recombinant human NEU1 protein
Experiment: SPR (Biacore T200, NEU1 immobilized on CM5 chip)
Assay type: binding

Row | SMILES | Kd (read-out: Kd) | Kd
1 | O=C(/C=C/c1ccc(O)c(O)c1/C=C/c1ccc(O)c(O)c1)O[C@H](Cc1ccc(O)c(O)c1)C(=O)O [SaA, salvianolic acid A] | 52300 nM | –
2 | O=C(/C=C/c1ccc(O)c2c1[C@H](C(=O)O[C@H](Cc1ccc(O)c(O)c1)C(=O)O)[C@@H](c1ccc(O)c(O)c1)O2)O[C@H](Cc1ccc(O)c(O)c1)C(=O)O [SaB, salvianolic acid B] | 21.6 nM | –
3 | O=C(/C=C/c1ccc(O)c(O)c1)O[C@H](Cc1ccc(O)c(O)c1)C(=O)O [rosmarinic acid] | – | 141 nM
